Results on two compounds are retold here after patent US9708304B2, “Salt polymorph of thioxanthene-9-ylidene-1-methyl piperidine acid addition salts as antimigraine compounds” (BIOFRONTERA BIOSCIENCE GMBH, priority 2013, dated 2017).

Each structure is given as a SMILES string. Read-outs that look alike come from different tables or passages of the source.

This data set can be described thus: Comparison of solubilities of sample Id 1 and Id 2 in three different solvents. It is filed as physicochemical. The protocol: It has also been confirmed that sample 2 has a higher solubility than the starting material. The starting HCl salt (sample Id 1) and the salt received from the low temperature evaporation (sample Id 2) were dissolved in 3 solvents with different capacities in solubility, namely methanol, 2-propanol and 96% ethanol (see Table 3 below). The solubility of sample Id 1 and sample Id 2 is shown in the rightmost column of Table 3 in mg/ml.

Setting [1] is: solvent 2-Propanol, hydrochloride.
Setting [2] is: solvent Ethanol 96%, hydrochloride.
Setting [3] is: solvent Methanol, hydrochloride.

For orientation: solubility means the dissolved amount per volume that the medium holds. Regarding `CCOc1ccc2c(c1)Sc1cccc(OC)c1C2=C1CCN(C)CC1.Cl` [Starting Material, 4-(6-ethoxy-1-methoxy-thioxanthene-9-ylidene)-1-methyl piperidine hydrochloride], the solubility is, setting by setting: (96% ethanol, organic solvent or mixture, thermodynamic from solid, solvent Ethanol 96%, read-out: Solubility) 57 mg/mL; (methanol, organic solvent or mixture, thermodynamic from solid, solvent Methanol, read-out: Solubility) 156 mg/mL; under setting [1], 4 mg/mL. Moreover, the “Weight-% (dissolved salt in solution)” value came out at 0.27% under setting [1], 4.56% under setting [2] and 12.50% under setting [3].

With `CCOc1ccc2c(c1)Sc1cccc(OC)c1C2=C1CCN(C)CC1.Cl` [Low. temp. evap. MeOH, 4-(6-ethoxy-1-methoxy-thioxanthene-9-ylidene)-1-methyl piperidine hydrochloride], the “Increase in solubility in comparison to the starting material (sample Id 1)” value runs as follows: (2-propanol) “about 25%”; (96% ethanol) “about 9%”. For the same compound, the solubility runs as follows: (2-propanol, organic solvent or mixture, thermodynamic from solid, solvent 2-Propanol, read-out: Solubility) 5 mg/mL; under setting [2], 62 mg/mL; under setting [3], 171 mg/mL. For the same compound, the “Solubility compared with starting material” value (methanol, 2-propanol and 96% ethanol) is reported as “enhanced solubility in all three solvents tested”. The “Weight-% (dissolved salt in solution)” value runs as follows: under setting [1], 0.38%; under setting [2], 4.70%; under setting [3], 12.92%.
